Results as given in patent US8952024B2, “Herbicidal pyrimidone derivatives” (E I du Pont de Nemours and Company, priority 2009, dated 2015).

Experiments:
Format in all cases: in vivo
[1] = tested on: canarygrass (Phalaris minor); assay: Test B postemergence plant response
Method in brief: (§1)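 Visual ratings from 0 (no effect) to 100 (complete control), made against controls 13–15 days after treatment, kept in a greenhouse. Compounds were applied postemergence to potted plants at the 1- to 4-leaf stage (2–18 cm).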

[2] = tested on: winter barley (Hordeum vulgare); assay: Test B postemergence plant response
Method in brief: as §1

[3] = tested on: windgrass (Apera spica-venti); assay: Test B postemergence plant response
Method in brief: as §1

[4] = tested on: chickweed (Stellaria media); assay: Test B postemergence plant response
Method in brief: as §1

[5] = tested on: velvetleaf (Abutilon theophrasti); assay: Test B pre-/postemergence plant response
Method in brief: (§2)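 Pre-em in loam/sand; post-em at 1–4 leaf (2–18 cm) in peat mix. Solvent + surfactant formulation. Greenhouse 13–15 d; visual % control vs untreated, 0–100.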

[6] = tested on: yellow nutsedge (Cyperus esculentus); assay: Test B pre-/postemergence plant response
Method in brief: as §2

[7] = tested on: johnsongrass (Sorghum halepense); assay: Test B pre-/postemergence plant response
Method in brief: as §2

[8] = tested on: giant foxtail (Setaria faberii); assay: Test B pre-/postemergence plant response
Method in brief: as §2

[9] = tested on: green foxtail (Setaria viridis); assay: Test B pre-/postemergence plant response
Method in brief: as §2

[10] = tested on: goosegrass (Eleusine indica); assay: Test B pre-/postemergence plant response
Method in brief: as §2

[11] = tested on: lambsquarters (Chenopodium album); assay: Test B pre-/postemergence plant response
Method in brief: as §2

soybean (Glycine max) = assay: Test B pre-/postemergence plant response
Method in brief: as §2

[12] = tested on: pigweed (Amaranthus retroflexus); assay: Test B pre-/postemergence plant response
Method in brief: as §2

corn (Zea mays) = assay: Test B pre-/postemergence plant response
Method in brief: as §2

[13] = 31 g ai/ha, postemergence, scale 0 to 100, 0 is no effect, 100 is complete control
[14] = Postemergence, 62 g ai/ha, scale 0 (no effect) to 100 (complete control), 13 to 15 days
[15] = Postemergence, 125 g ai/ha, visual rating after 13 to 15 days, scale 0 (no effect) to 100 (complete control)
[16] = Postemergence, 250 g ai/ha, scale 0 to 100 (0 no effect, 100 complete control)
[17] = Preemergence, 31 g ai/ha, scale 0 to 100 (0 no effect, 100 complete control)
[18] = Preemergence, 62 g ai/ha, scale 0 to 100 (0 no effect, 100 complete control)
[19] = Preemergence, 125 g ai/ha, scale 0 to 100, 0 no effect, 100 complete control
[20] = 250 g ai/ha, Preemergence, 0 to 100 scale
[21] = Postemergence, 31 g ai/ha, scale 0 to 100 (0 no effect, 100 complete control)
[22] = Postemergence, 250 g ai/ha, scale 0 to 100
[23] = Preemergence, 0 is no effect, 100 is complete control, rated after 13 to 15 days, application rate of this section not shown

## Cn1c(-c2ccccc2)ncc(C(=O)C2=C(O)CCCC2=O)c1=O [Compound 55]
[1]; [13]
  Plant response rating, Canarygrass: 0
[1]; [14]
  Plant response rating, Canarygrass: 0
[1]; [15]
  Plant response rating, Canarygrass: 0
[1]; [16]
  Plant response rating, Canarygrass: 0
[2]; [13]
  Plant response rating, Barley: 0
[2]; [14]
  Plant response rating, Barley: 0
[2]; [15]
  Plant response rating, Barley: 0
[2]; [16]
  Plant response rating, Barley: 0
[3]; [13]
  Plant response rating, Windgrass: 0
[3]; [14]
  Plant response rating, Windgrass: 0
[3]; [15]
  Plant response rating, Windgrass: 0
[3]; [16]
  Plant response rating, Windgrass: 5
[4]; [13]
  Plant response rating, Chickweed: 65
[4]; [14]
  Plant response rating, Chickweed: 75
[4]; [15]
  Plant response rating, Chickweed: 80
[4]; [16]
  Plant response rating, Chickweed: 90
[5]; [13]
  Plant response rating, Velvetleaf: 90
[5]; [14]
  Plant response rating, Velvetleaf: 98
[5]; [15]
  Plant response rating, Velvetleaf: 98
[5]; [16]
  Plant response rating, Velvetleaf: 100
[5]; [17]
  Plant response rating, Velvetleaf: 75
[5]; [18]
  Plant response rating, Velvetleaf: 98
[5]; [19]
  Plant response rating, Velvetleaf: 100
[6]; [13]
  Plant response rating, Nutsedge, Yellow: 10
[6]; [14]
  Plant response rating, Nutsedge, Yellow: 10
[6]; [15]
  Plant response rating, Nutsedge, Yellow: 55
[6]; [16]
  Plant response rating, Nutsedge, Yellow: 65
[6]; [17]
  Plant response rating, Nutsedge, Yellow: 0
[6]; [18]
  Plant response rating, Nutsedge, Yellow: 45
[6]; [19]
  Plant response rating, Nutsedge, Yellow: 45
[7]; [13]
  Plant response rating, Johnsongrass: 0
[7]; [20]
  Plant response rating, Johnsongrass: 0
[7]; [14]
  Plant response rating, Johnsongrass: 0
[7]; [15]
  Plant response rating, Johnsongrass: 10
[7]; [16]
  Plant response rating, Johnsongrass: 20
[7]; [17]
  Plant response rating, Johnsongrass: 0
[7]; [18]
  Plant response rating, Johnsongrass: 0
[7]; [19]
  Plant response rating, Johnsongrass: 0
[8]; [13]
  Plant response rating, Foxtail, Giant: 25
[8]; [20]
  Plant response rating, Foxtail, Giant: 10
[8]; [14]
  Plant response rating, Foxtail, Giant: 30
[8]; [15]
  Plant response rating, Foxtail, Giant: 55
[8]; [16]
  Plant response rating, Foxtail, Giant: 75
[8]; [17]
  Plant response rating, Foxtail, Giant: 0
[8]; [18]
  Plant response rating, Foxtail, Giant: 0
[8]; [19]
  Plant response rating, Foxtail, Giant: 0
[9]; [13]
  Plant response rating, Foxtail, Green: 30
[9]; [20]
  Plant response rating, Foxtail, Green: 0
[9]; [14]
  Plant response rating, Foxtail, Green: 40
[9]; [15]
  Plant response rating, Foxtail, Green: 80
[9]; [16]
  Plant response rating, Foxtail, Green: 80
[9]; [17]
  Plant response rating, Foxtail, Green: 0
[9]; [18]
  Plant response rating, Foxtail, Green: 0
[9]; [19]
  Plant response rating, Foxtail, Green: 0
[10]; [13]
  Plant response rating, Goosegrass: 45
[10]; [20]
  Plant response rating, Goosegrass: 98
[10]; [14]
  Plant response rating, Goosegrass: 60
[10]; [15]
  Plant response rating, Goosegrass: 65
[10]; [16]
  Plant response rating, Goosegrass: 75
[10]; [17]
  Plant response rating, Goosegrass: 45
[10]; [18]
  Plant response rating, Goosegrass: 95
[10]; [19]
  Plant response rating, Goosegrass: 98
[11]; [13]
  Plant response rating, Lambsquarters: 80
[11]; [20]
  Plant response rating, Lambsquarters: 100
[11]; [14]
  Plant response rating, Lambsquarters: 80
[11]; [15]
  Plant response rating, Lambsquarters: 95
[11]; [16]
  Plant response rating, Lambsquarters: 98
[11]; [17]
  Plant response rating, Lambsquarters: 95
[11]; [18]
  Plant response rating, Lambsquarters: 98
[11]; [19]
  Plant response rating, Lambsquarters: 98
Soybean (Glycine max); [13]
  Plant response rating, Soybean: 25
Soybean (Glycine max); [14]
  Plant response rating, Soybean: 60
Soybean (Glycine max); [15]
  Plant response rating, Soybean: 60
Soybean (Glycine max); [16]
  Plant response rating, Soybean: 75
Soybean (Glycine max); [17]
  Plant response rating, Soybean: 0
Soybean (Glycine max); [18]
  Plant response rating, Soybean: 0
Soybean (Glycine max); [19]
  Plant response rating, Soybean: 15
[12]; [13]
  Plant response rating, Pigweed: 80
[12]; [14]
  Plant response rating, Pigweed: 85
[12]; [15]
  Plant response rating, Pigweed: 90
[12]; [16]
  Plant response rating, Pigweed: 95
[12]; [17]
  Plant response rating, Pigweed: 45
[12]; [18]
  Plant response rating, Pigweed: 95
[12]; [19]
  Plant response rating, Pigweed: 98
Corn (Zea mays); [13]
  Plant response rating, Corn: 0
Corn (Zea mays); [20]
  Plant response rating, Corn: 0
Corn (Zea mays); [14]
  Plant response rating, Corn: 5
Corn (Zea mays); [15]
  Plant response rating, Corn: 5
Corn (Zea mays); [16]
  Plant response rating, Corn: 10
Corn (Zea mays); [17]
  Plant response rating, Corn: 0
Corn (Zea mays); [18]
  Plant response rating, Corn: 0
Corn (Zea mays); [19]
  Plant response rating, Corn: 0

## 5-[(2-hydroxy-6-oxo-1-cyclohexen-1-yl)carbonyl]-2,3-diphenyl-4(3H)-pyrimidinone [Compound 2]
[1]; [21]
  Plant response rating, Canarygrass: 0
[1]; [14]
  Plant response rating, Canarygrass: 0
[1]; [15]
  Plant response rating, Canarygrass: 0
[1]; [22]
  Canarygrass plant response rating: 0
[2]; [21]
  Plant response rating, Barley: 0
[2]; [14]
  Plant response rating, Barley: 0
[2]; Postemergence, 125 g ai/ha, scale 0 to 100 (0 no effect, 100 complete control), 13 to 15 days
  Plant response rating, Barley: 0
[2]; [22]
  Barley plant response rating: 0
[3]; [21]
  Plant response rating, Windgrass: 0
[3]; [14]
  Plant response rating, Windgrass: 0
[3]; [15]
  Plant response rating, Windgrass: 0
[3]; [22]
  Windgrass plant response rating: 5
[4]; [21]
  Plant response rating, Chickweed: 55
[4]; [14]
  Plant response rating, Chickweed: 60
[4]; [15]
  Plant response rating, Chickweed: 65
[4]; [22]
  Chickweed plant response rating: 90
[5]; [21]
  Plant response rating, Velvetleaf: 55
[5]; [14]
  Plant response rating, Velvetleaf: 75
[5]; [15]
  Plant response rating, Velvetleaf: 85
[5]; [22]
  Velvetleaf plant response rating: 90
[5]; [23]
  Velvetleaf plant response rating (0 to 100 scale): 0
[6]; [21]
  Plant response rating, Nutsedge, Yellow: 15
[6]; [14]
  Plant response rating, Nutsedge, Yellow: 20
[6]; [15]
  Plant response rating, Nutsedge, Yellow: 20
[6]; [22]
  Nutsedge, Yellow plant response rating: 45
[7]; [21]
  Plant response rating, Johnsongrass: 0
[7]; [14]
  Plant response rating, Johnsongrass: 0
[7]; [15]
  Plant response rating, Johnsongrass: 0
[7]; [22]
  Johnsongrass plant response rating: 20
[8]; [21]
  Plant response rating, Foxtail, Giant: 0
[8]; [14]
  Plant response rating, Foxtail, Giant: 15
[8]; [15]
  Plant response rating, Foxtail, Giant: 20
[8]; [22]
  Foxtail, Giant plant response rating: 50
[9]; [21]
  Plant response rating, Foxtail, Green: 5
[9]; [14]
  Plant response rating, Foxtail, Green: 10
[9]; [15]
  Plant response rating, Foxtail, Green: 30
[9]; [22]
  Foxtail, Green plant response rating: 40
[10]; [21]
  Plant response rating, Goosegrass: 60
[10]; [14]
  Plant response rating, Goosegrass: 60
[10]; [15]
  Plant response rating, Goosegrass: 65
[10]; [22]
  Goosegrass plant response rating: 80
[11]; [21]
  Plant response rating, Lambsquarters: 70
[11]; [14]
  Plant response rating, Lambsquarters: 75
[11]; [15]
  Plant response rating, Lambsquarters: 90
[11]; [22]
  Lambsquarters plant response rating: 90
Soybean (Glycine max); [21]
  Plant response rating, Soybean: 50
Soybean (Glycine max); [14]
  Plant response rating, Soybean: 65
Soybean (Glycine max); [15]
  Plant response rating, Soybean: 70
Soybean (Glycine max); [22]
  Soybean plant response rating: 80
Soybean (Glycine max); [23]
  Soybean plant response rating (0 to 100 scale): 0
[12]; [21]
  Plant response rating, Pigweed: 65
[12]; [14]
  Plant response rating, Pigweed: 80
[12]; [15]
  Plant response rating, Pigweed: 85
[12]; [22]
  Pigweed plant response rating: 90
Corn (Zea mays); [21]
  Plant response rating, Corn: 0
Corn (Zea mays); [14]
  Plant response rating, Corn: 0
Corn (Zea mays); [15]
  Plant response rating, Corn: 0
Corn (Zea mays); [22]
  Corn plant response rating: 0
